Measured values: PMC6522912, “Evaluation of the published kinase inhibitor set to identify multiple inhibitors of bacterial ATP-dependent mur ligases” (Journal of Enzyme Inhibition and Medicinal Chemistry, 2019)
Converted amounts (≈) assume the structure as drawn.

Assays:
E. coli MurC = E. coli MurC (Escherichia coli, UniProt P17952); test: Malachite green inhibition assay, MurC; format: biochemical; settings: Table S1, PKIS screening; for remaining activity at 100 µM: 0.25 h, read-out: RA [%] at 100 µM MurC
Sequence of E. coli MurC (P17952 whole entry): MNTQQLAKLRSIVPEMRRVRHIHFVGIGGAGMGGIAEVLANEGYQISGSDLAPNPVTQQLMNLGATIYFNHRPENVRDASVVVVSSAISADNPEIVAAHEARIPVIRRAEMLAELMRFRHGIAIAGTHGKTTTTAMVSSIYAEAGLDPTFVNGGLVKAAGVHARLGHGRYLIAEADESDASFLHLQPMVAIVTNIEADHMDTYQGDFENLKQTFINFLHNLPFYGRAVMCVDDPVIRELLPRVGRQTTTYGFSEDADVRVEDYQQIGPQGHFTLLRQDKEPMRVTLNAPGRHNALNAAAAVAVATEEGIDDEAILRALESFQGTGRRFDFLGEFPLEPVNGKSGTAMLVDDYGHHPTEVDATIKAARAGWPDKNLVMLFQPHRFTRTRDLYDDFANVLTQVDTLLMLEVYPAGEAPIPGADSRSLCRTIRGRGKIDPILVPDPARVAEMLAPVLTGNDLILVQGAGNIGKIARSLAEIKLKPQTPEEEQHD

E. coli MurD = E. coli MurD (Escherichia coli, UniProt P14900); test: biochemical; settings: for remaining activity at 100 µM: 0.25 h, Table S1, PKIS screening, read-out: RA [%] at 100 µM MurD
Sequence of E. coli MurD (P14900 whole entry): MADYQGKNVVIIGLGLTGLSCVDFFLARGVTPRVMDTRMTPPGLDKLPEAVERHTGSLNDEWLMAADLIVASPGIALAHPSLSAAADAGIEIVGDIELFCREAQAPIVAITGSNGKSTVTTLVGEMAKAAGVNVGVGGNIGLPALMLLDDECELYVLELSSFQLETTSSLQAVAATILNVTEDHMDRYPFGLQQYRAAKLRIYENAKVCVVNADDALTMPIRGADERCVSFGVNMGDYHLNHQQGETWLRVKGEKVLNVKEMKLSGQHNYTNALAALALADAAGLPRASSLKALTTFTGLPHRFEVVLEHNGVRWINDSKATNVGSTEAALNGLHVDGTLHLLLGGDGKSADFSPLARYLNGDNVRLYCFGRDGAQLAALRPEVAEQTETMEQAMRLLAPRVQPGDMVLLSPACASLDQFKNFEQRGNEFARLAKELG
Summary of the method: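 Orthophosphate released by E. coli MurD quantified by malachite green (Biomol green) absorbance at 650 nm after 15 min at 37 °C. Residual activity relative to DMSO-only controls.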

E. coli MurF = E. coli MurF (Escherichia coli, UniProt P11880); test: biochemical; settings: Table S1, PKIS screening; for remaining activity at 100 µM: 0.25 h, read-out: RA [%] at 100 µM MurF
Sequence of E. coli MurF (P11880 whole entry): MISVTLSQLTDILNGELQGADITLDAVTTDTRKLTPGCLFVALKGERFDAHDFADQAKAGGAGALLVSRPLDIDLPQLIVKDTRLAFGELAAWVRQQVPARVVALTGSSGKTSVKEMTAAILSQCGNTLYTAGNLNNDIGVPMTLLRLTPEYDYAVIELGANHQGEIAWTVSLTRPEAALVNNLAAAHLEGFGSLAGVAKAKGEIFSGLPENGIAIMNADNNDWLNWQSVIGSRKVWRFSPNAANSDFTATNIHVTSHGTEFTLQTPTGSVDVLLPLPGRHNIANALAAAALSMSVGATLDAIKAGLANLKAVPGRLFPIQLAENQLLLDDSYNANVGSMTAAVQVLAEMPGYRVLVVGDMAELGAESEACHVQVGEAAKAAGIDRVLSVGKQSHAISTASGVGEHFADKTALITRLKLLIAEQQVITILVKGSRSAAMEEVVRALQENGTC

E. coli (ATCC 25922) = test: Antimicrobial testing, broth microdilution; format: cell-based; settings: Escherichia coli, ATCC25922; positive control; 20 h, 37 °C
Protocol: (§1) Antimicrobial testing was performed by the broth microdilution method in 96-well plates following the Clinical and Laboratory Standards Institute guidelines[29] and European Committee on Antimicrobial Susceptibility Testing recommendations. Bacterial suspensions equivalent to 0.5 McFarland turbidity standard were diluted with cation-adjusted Mueller–Hinton broth with TES buffering (ThermoFisher Scientific), for a final inoculum of 10^5 CFU/mL. The compounds dissolved in DMSO and the inoculum were mixed together and incubated for 20 h at 37 °C. […] The MICs were determined against Staphylococcus aureus (ATCC 29213) and E. coli (ATCC 25922) bacterial strains. Tetracycline was used as the positive control on every assay plate, with MICs of 0.5 and 1 µg/mL for S. aureus and E. coli, respectively.

[1] = test system: Staphylococcus aureus (ATCC 29213); test: Antimicrobial testing, broth microdilution; format: cell-based; settings: ATCC29213, positive control, 20 h, 37 °C
Protocol: as §1

`NS(=O)(=O)c1cccc(-c2ccc3c(NC(=O)C4CC4)n[nH]c3c2)c1` [SB-741905] showed a remaining activity at 100 µM (E. coli MurC) of 72%, a remaining activity at 100 µM (E. coli MurD) of 98% and a remaining activity at 100 µM (E. coli MurF) of 88%.
Compound `CS(=O)(=O)Nc1cccc(-c2ccc3c(NC(=O)C4CC4)n[nH]c3c2)c1` [SB-742864] has a remaining activity at 100 µM (E. coli MurC) of 64%, a remaining activity at 100 µM (E. coli MurD) of 88% and a remaining activity at 100 µM (E. coli MurF) of 99%.
For `CS(=O)(=O)Nc1ccc(-c2ccc3c(NC(=O)C4CC4)n[nH]c3c2)cc1` [SB-742865], the remaining activity at 100 µM (E. coli MurC) was 63%, the remaining activity at 100 µM (E. coli MurD) was 80% and the remaining activity at 100 µM (E. coli MurF) was 92%.
Compound `O=C(Nc1n[nH]c2nc(-c3ccco3)ccc12)C1CC1` [SB-743899] has a remaining activity at 100 µM (E. coli MurC) of 84%, a remaining activity at 100 µM (E. coli MurD) of 89% and a remaining activity at 100 µM (E. coli MurF) of 91%.
Compound `CCc1nccc2c1nc(-c1nonc1N)n2CC` [SB-751148] has a remaining activity at 100 µM (E. coli MurC) of 75%, a remaining activity at 100 µM (E. coli MurD) of 96% and a remaining activity at 100 µM (E. coli MurF) of 88%.
In the case of `CCn1c(-c2nonc2N)nc2cncc(C(=O)N3CC[C@H](N)C3)c21` [SB-772077-B], the “RA [%] at 100 µM MurC” value (E. coli MurC) is reported as 77%, the “RA [%] at 100 µM MurD” value (E. coli MurD) is reported as 90 and the “RA [%] at 100 µM MurF” value (E. coli MurF) is reported as 80%.
`Fc1ccc(-c2nc3n(c2-c2ccncc2)CCS3)cc1` [SKF-86002-A2] was tested, and the “RA [%] at 100 µM MurC” value (E. coli MurC) was 75%, the “RA [%] at 100 µM MurD” value (E. coli MurD) was 91 and the “RA [%] at 100 µM MurF” value (E. coli MurF) was 97%.
Compound `Fc1ccc(-c2c(-c3ccncc3)nc3n2CCS3)cc1` [SKF-86055] has a remaining activity at 100 µM (E. coli MurC) of 98%, a remaining activity at 100 µM (E. coli MurD) of 91% and a remaining activity at 100 µM (E. coli MurF) of 89%.
`CN(C)[C@@H]1C(O)=C(C(N)=O)C(=O)[C@@]2(O)C(O)=C3C(=O)c4c(O)cccc4[C@@](C)(O)[C@H]3C[C@@H]12` [Tetracycline] was tested, and the MIC (E. coli (ATCC 25922)) was 1 µg/mL (≈ 2.25 µM) and the MIC [1] was 0.5 µg/mL (≈ 1.13 µM).
With SB-675259-M the “RA [%] at 100 µM MurC” value (E. coli MurC) was 72%, the “RA [%] at 100 µM MurD” value (E. coli MurD) was 80 and the “RA [%] at 100 µM MurF” value (E. coli MurF) was 100%.
With SB-739245-AC the “RA [%] at 100 µM MurC” value (E. coli MurC) was 61%, the “RA [%] at 100 µM MurD” value (E. coli MurD) was 99% and the “RA [%] at 100 µM MurF” value (E. coli MurF) was 95%.
